Values belong to the molecule of their own block, whether it stands above or below them.
Legend:
[1] = test system: PC-3 cells; test: In situ tubulin assay (immunofluorescence microscopy); type: cell-based, human; details: 18 to 24 h
Description: The organization and formation of microtubule were detected by immunofluorescence microscopic examination in PC-3 cells.
PC-3 cells were seeded in 8-well chamber slides and incubated with a vehicle (0.1% DMSO, control), Compound 55 (10 μM), taxol (0.1 μM), or vincristine (0.1 μM) for 18 to 24 h. Then, the cells were fixed with 100% methanol at −20° C. for 5 min and incubated in 1% bovine serum albumin (BSA) containing 0.1% Triton X-100 at 37° C. for 30 min. Cells were then washed twice with PBS for 5 min and stained with primary antibody specific to β-tubulin at 37° C. for 1 h. Afterwards, FITC-labeled secondary antibodies were used (staining performed at 37° C. for 40 min, green fluorescence) and the protein was detected using a confocal laser microscopic system (Leica TCS SP2). The nuclei were visible by DAPI staining (1 mg/mL DAPI, blue fluorescence).

[2] = test system: human non-small cell lung cancer A549 cells; test: SRB assay, A549 cells; type: cell-based; details: SRB growth inhibition, 48 hrs or 72 hrs
Description: (§1) NCI/ADR-RES cell line was obtained from DTP Human Tumor Cell Line Screen (Developmental Therapeutics Program, NCI). Other cancer cell lines (A549, Hep G2, Hep 3B, DU-145, LNCaP, and PC-3) were obtained from American Type Culture Collection (Rockville, Md.). These cancer cells were cultured in RPMI1640 medium with 10% (v/v) fetal bovine serum (FBS) and penicillin (100 units/mL)/streptomycin (100 μg/mL). Cultures were maintained in a humidified incubator at 37° C. in 5% CO2/95% air.
(§2) Cells were seeded in 96-well plates in medium with 5% FBS for 24 hrs. They were then further incubated with a vehicle (0.1% DMSO) as control or a test compound for 48 hrs or 72 hrs. The control- or compound-treated cells were fixed with 10% TCA and stained with SRB at 0.4% (w/v) in 1% acetic acid. Unbound SRB was washed off by 1% acetic acid and SRB-bound cells were solubilized with 10 mM Trizma base.
(§3) Using an absorbance (515 nm) measurement, the amounts of cellular proteins indicating cell numbers at time zero (T0), in control (C), and in the presence of the test compound (Tx) were obtained. The percentage growth was calculated at each of the compound concentration levels. Percentage growth inhibition was calculated as: 100−[(Tx−T0)/(C−T0)]×100. […]

[3] = test system: DU-145 cells; test: SRB assay, DU-145 cells; type: cell-based; details: Homo sapiens, SRB growth inhibition, 48 hrs or 72 hrs
Description: as §1, §2, §3

[4] = test system: Tubulin proteins; test: In vitro tubulin turbidity assay; type: biochemical; details: 37° C., 60 min
Description: Effects of the benzimidazole compounds on tubulin polymerization were detected using CytoDYNAMIX Screen 03 kit (Cytoskeleton, Inc., Denver, Colo.).
Tubulin proteins (>99% purity) were suspended in G-PEM buffer containing 80 mM PIPES, 2 mM MgCl2, 0.5 mM EDTA, and 1.0 mM GTP (pH 6.9) and 5% glycerol with or without a test compound. Then, the mixture was transferred to a 96-well plate and the absorbance was measured at 340 nm (37° C.) for 60 min (SpectraMAX Plus, Molecular Devices Inc., Sunnyvale, Calif.).
Level of tubulin polymerization was determined by examining turbidity of the tubulin suspension. Absorbance of the suspension at 340 nm was plotted as a function of time. Accordingly, the velocity and magnitude of tubulin polymerization were determined.

[5] = test system: LNCaP cells; test: SRB assay, LNCaP cells; type: cell-based; details: Homo sapiens, SRB growth inhibition, 48 hrs or 72 hrs
Description: as §1, §2, §3

[6] = test system: hepatocellular carcinoma Hep3B cells; test: SRB assay, Hep3B cells; type: cell-based; details: Homo sapiens, SRB growth inhibition, 48 hrs or 72 hrs
Description: as §1, §2, §3

[7] = test system: hepatocellular carcinoma HepG2 cells; test: SRB assay, HepG2 cells; type: cell-based; details: Homo sapiens, SRB growth inhibition, 48 hrs or 72 hrs
Description: as §1, §2, §3

[8] = test system: PC-3 cells; test: Western blotting of Ras, Raf-1, MEK; type: cell-based, human; details: 10 μM
Description: (§4) PC-3 cells were incubated with a vehicle (0.1% DMSO) as control or Coumpound 55 (10 μM) for 30 min, 45 min, 60 min, and 120 min for testing Ras; or for 6 hrs, 12 hrs, 18 hrs, and 24 hrs for testing Raf-1, Phospho-MEK, MEK, and GAPDH. After the treatment, cells were washed twice with ice-cold PBS and then lysed with 100 μL lysis buffer (20 mM Tris, pH 7.5, 1 mM MgCl2, 125 mM NaCl, 1% Triton X-100, 1 mM phenylmethylsulphonylfluoride, 10 μg/mL leupeptin, 10 μg/mL aprotinin, 25 mM β-glycerophosphate, 50 mM NaF, and 100 μM sodium orthovanadate). Then, the expressions of the above proteins were detected by Western blotting.

[9] = test system: PC-3 cells; test: Western blot of Bcl-2 family proteins, caspases and PARP; type: cell-based, human; details: 10 μM, 0 hr to 36 hrs
Description: Effect of benzimidazole compounds on inducing apoptosis was evaluated by testing their effect on the expression/activation of Bcl-2 family member proteins, caspases, and c-Jun N-terminal kinase (JNK). Bcl-2 family of proteins is the most important regulators of mitochondria-involved apoptotic cell death. The pro-apoptotic members, Bax, Bak and Bad, are required for the disruption of mitochondria; whereas the anti-apoptotic Bcl-2, Bcl-xL and Mcl-1 can prevent apoptosis by antagonizing the pro-apoptotic members.
PC-3 cells were incubated with a vehicle (0.1% DMSO) or Compound 55 (10 μM) for 0 hr, 6 hrs, 12 hrs, 18 hrs, 24 hrs, and 36 hrs. Then, the cells were harvested and lysed for the detection of protein expression with specific antibodies by western blot analysis. For Western blotting, the proteins (40 μg) in the lysis (including Phospho-Bcl-2, Bcl-2, Phospho-Bcl-xL, Bcl-xL, Mcl-1, Bax, Bak, Bad, GAPDH, cleaved Bad, Caspase-9, cleaved Caspase-9, Caspase-3, cleaved Caspase-3, poly-(ADP-ribose) polymerase (PARP), cleaved PARP, and GAPDH) were separated by electrophoresis in a 10 to 15% polyacrylamide gel, transferred to a nitrocellulose membrane and immuno-reacted with specific antibodies.

[10] = test system: prostate cancer PC-3 cells; test: SRB assay, PC-3 cells; type: cell-based; details: Homo sapiens, SRB growth inhibition, 48 hrs or 72 hrs
Description: as §1, §2, §3

[11] = test system: P-glycoprotein (P-gp)-rich breast cancer NCI/ADR-RES cells; test: SRB assay, NCI/ADR-RES cells; type: cell-based; details: Homo sapiens, SRB growth inhibition, 48 hrs or 72 hrs
Description: as §1, §2, §3

[12] = test system: PC-3 cells; test: FACScan flow cytometric analysis of cell cycle; type: cell-based, human; details: 1 μM, 3 μM, and 10 μM, 0 hr to 48 hrs
Description: PC-3 cells were treated with Compound 55 (at different concentrations: 1 μM, 3 μM, and 10 μM) for 0 hr, 6 hrs, 12 hrs, 18 hrs, 24 hrs, 36 hrs, and 48 hrs. After treatment, cells were washed twice with ice-cold PBS, collected by centrifugation and fixed in 70% (v/v) ethanol at 4° C. for 30 min. Then, cells were treated with 0.2 ml of a buffer (containing 0.2 M Na2HPO4 and 0.1 M citric acid buffer, pH 7.8) for 30 min, centrifuged, and then incubated in 1 mL propidium iodide (PI) staining buffer (0.1% Triton X-100, 100 μg/mL RNase A, 80 μg/mL propidium iodide in PBS) at 37° C. for 30 min. Cells were detected using a cytofluorometer, and analyzed by FACScan and CellQuest program (Becton Dickinson).

[13] = test system: PC-3 cells; test: Western blot analysis of cell-cycle regulators; type: cell-based, human; details: 10 μM
Description: as §4
The cell-cycle regulators were also examined by Western blot analysis. Proteins in the lysis (40 μg) were separated by electrophoresis in a 10 or 15% polyacrylamide gel, transferred to a nitrocellulose membrane and immuno-reacted with respective antibodies against Cyclin E, Cyclin A, Cyclin B1, Cdk1, Cdk2, p27, MPM2, and GAPDH.

SMILES: CC[C@]1(O)C[C@H]2CN(CCc3c([nH]c4ccccc34)[C@@](C(=O)OC)(c3cc4c(cc3OC)N(C=O)[C@H]3[C@@](O)(C(=O)OC)[C@H](OC(C)=O)[C@]5(CC)C=CCN6CC[C@]43[C@@H]65)C2)C1 [vincristine]
spindle and nuclei morphology (in situ labeling of tubulin and chromosomes) ([1]; 0.1 μM): multi-polar spindles and chromosome condensation were observed

SMILES: CC(=O)O[C@H]1C(=O)[C@@]2(C)[C@H]([C@H](OC(=O)c3ccccc3)[C@]3(O)C[C@H](OC(=O)[C@H](O)[C@@H](NC(=O)c4ccccc4)c4ccccc4)C(C)=C1C3(C)C)[C@]1(OC(C)=O)CO[C@@H]1C[C@@H]2O [taxol]
spindle and nuclei morphology (in situ labeling of tubulin and chromosomes) ([1]; 0.1 μM): multi-polar spindles and multiple nuclei were formed

IC50 [2]: 2.4 µM
IC50 [3]: 2.3 µM
IC50 [5]: 1.7 µM
IC50 [6]: 2.4 µM
IC50 [7]: 3.3 µM
IC50 [10]: 2.3 µM
IC50 [11]: 3.7 µM
SMILES: COc1cc(Cn2c(-c3ccccc3)nc3cc(N4CCCC4)ccc32)cc(OC)c1OC [Compound 55, 2-phenyl-5-(pyrrolidin-1-yl)-1-(3,4,5-trimethoxybenzyl)-1H-benzo[d]imidazole]
tubulin polymerization (turbidity, absorbance at 340 nm) [4]: inhibited tubulin polymerization in a dose-dependent manner
Ras expression ([8]; 30 min to 120 min): upregulated
MEK expression ([8]; 6 hrs to 24 hrs): upregulated
Raf-1 expression ([8]; 6 hrs to 24 hrs): upregulated
Bcl-2 phosphorylation and degradation [9]: induced the phosphorylation and degradation
Bcl-xL phosphorylation and degradation [9]: induced the phosphorylation and degradation
Mcl-1 expression [9]: decrease
PARP cleavage [9]: cleaved to produce catalytically active fragments
caspase-3 cleavage [9]: cleaved to produce catalytically active fragments
caspase-9 cleavage [9]: cleaved to produce catalytically active fragments
cleavage of pro-apoptotic Bad [9]: cleavage of pro-apoptotic Bad into 15-kDa fragments was unexpectedly induced
cell population at G2/M phase [12]: induced an increase
hypodiploid (sub-G1, apoptosis) population of the cell cycle [12]: subsequent increase
cyclin A expression [13]: downregulated
cyclin B1 expression [13]: upregulated
cyclin E expression [13]: downregulated
expression of p27 (a Cdk inhibitor) [13]: decreased
spindle and nuclei morphology (in situ labeling of tubulin and chromosomes) ([1]; 10 μM): mono-polar

Source: patent publication US8501957B2, “Benzimidazole compounds and their use as anticancer agents” (China Medical University, priority 2008, dated 2013)
